Reference: the OPERA property sets (Mansouri et al. 2018)

| SMILES | boiling point | melting point | other results |
| --- | --- | --- | --- |
| O=C(Cl)C(Cl)=C(Cl)Cl | 158 °C |  |  |
| CCCCC(C(N)=O)n1nc2ccccc2n1 (stereo unspecified) |  | 102 °C |  |
| CC(O)CN(C)C (stereo unspecified) | 124 °C | 124 °C |  |
| COC(=O)c1ccc(Br)cc1 |  | 81 °C |  |
| Nc1ncnc2c1ncn2[C@@H]1O[C@H](CO)[C@@H](O)[C@H]1O |  | 246 °C |  |
| C=CCc1ccc(OC)cc1 | 216 °C |  |  |
| CC[C@H]1OC(=O)[C@H](C)C(=O)[C@H](C)[C@@H](O[C@@H]2O[C@H](C)C[C@H](N(C)C)[C@H]2O)[C@@H](C)C[C@@H](C)C(=O)C=C[C@]1(C)O |  | 170 °C |  |
| CCOCCC(OCC)OCC | 185 °C | 53 °C |  |
| Cc1c(Br)c(Br)c(Br)c(Br)c1Br |  | 288 °C | ready biodegradability: not readily biodegradable; log10 BCF (fish): 2.43; log10 biotransformation half-life (days) (fish): -0.13 |
| Cc1ccc(S(=O)(=O)Cl)cc1 |  | 71 °C | ready biodegradability: readily biodegradable |
| CC(=O)C[C@H](C)O | 177 °C |  |  |
| O=C1c2ccccc2C(=O)N1SC(F)(Cl)Cl |  |  | ready biodegradability: not readily biodegradable |
| Cc1ccc(C)[nH]1 | 171 °C | 7.7 °C | log10 vapour pressure (mmHg): -0.0942 |
| C=C(C)C(=O)C(=CC(=O)O)OC |  | 83 °C |  |
| CCOC(=O)c1ccccc1N | 268 °C | 13 °C |  |
| COc1ccccc1CO | 249 °C |  |  |
| O=C1C[C@H]2CCCC[C@H]2C1 | 222 °C | -1 °C |  |
| c1cn[nH]c1 | 187 °C | 68 °C |  |
| Clc1cc(Cl)c2c(Cl)cc(Cl)cc2c1 |  |  | log10 Koa: 8.28 |
| CC(Cl)=CCl |  |  | log10 vapour pressure (mmHg): 1.96 |
| C=C(CC)CCC | 94 °C |  |  |
| Fc1c(F)c(F)c(Br)c(F)c1F | 137 °C | -31 °C | log10 vapour pressure (mmHg): 0.903 |
| O=CNC1CCCCC1 | 260 °C | 39.5 °C |  |
| NCCCCCCCCN | 225 °C | 52 °C | ready biodegradability: readily biodegradable |
| Cc1cccc2cc3c(ccc4ccccc43)cc12 |  | 156 °C |  |

| SMILES | boiling point | melting point | other results |
| --- | --- | --- | --- |
| C[C@@H]1C(=O)OC[C@H]2[C@@H]1CC[C@@H]2C |  | 60.5 °C |  |
| O=C(c1ccccc1)c1ccncc1 | 315 °C | 72 °C |  |
| c1cc(OCC2CO2)cc(OCC2CO2)c1 (stereo unspecified) |  | 42.5 °C |  |
| c1ccc(-c2ccc3ccccc3c2)cc1 | 346 °C | 104 °C | log10 vapour pressure (mmHg): -4.46 |
| CCOc1ccccc1 | 170 °C | -29.5 °C | log10 vapour pressure (mmHg): 0.185; ready biodegradability: readily biodegradable |
| CCCCCCOC(C)=O | 172 °C | -80.9 °C | log10 Henry constant (atm·m³/mol): -3.28; log10 Koa: 4.58; log10 vapour pressure (mmHg): 0.122 |
| CCOC(=O)CO | 160 °C |  |  |
| CC(=O)O[C@H]1C[C@@H]2CC[C@@H]3[C@H](CC[C@@]4(C)[C@H]3C[C@H]([N+]3(C)CCCCC3)[C@@H]4OC(C)=O)[C@@]2(C)C[C@@H]1N1CCCCC1.[Br-] |  | 228 °C |  |
| Clc1cc(Cl)c(-c2ccc(Cl)c(Cl)c2)c(Cl)c1 |  |  | log10 Henry constant (atm·m³/mol): -4.13 |
| CC(=O)OC1CCCCC1C (stereo unspecified) |  |  | ready biodegradability: readily biodegradable |
| O=C(O)c1c(Cl)ccc2cc(Cl)cnc12 |  | 274 °C |  |
| CN(C)c1ccc(-c2ccc(N(C)C)cc2)cc1 |  | 194 °C |  |
| Oc1ccc(-c2ccc(O)cc2)cc1 |  | 283 °C | ready biodegradability: not readily biodegradable |
| CCCC=CCCCCC | 171 °C |  |  |
| CC=Cc1cccc(OC)c1O | 268 °C | 81 °C |  |
| Cc1ccc(Cl)c(Cl)c1 | 209 °C | -15.2 °C | log10 vapour pressure (mmHg): -0.502 |
| COc1ccc(C[C@H]2NC[C@H](O)[C@H]2OC(C)=O)cc1 |  | 140 °C |  |
| CCN(CC)CCN | 144 °C |  |  |
| CNC(=O)Oc1cccc2c1OC(C)(C)O2 |  |  | log10 Koc (L/kg): 2.75 |
| OCCN1CCNCC1 | 246 °C |  |  |
| CP(=O)(O)CCC(N)C(=O)[O-].[NH4+] (stereo unspecified) |  | 215 °C |  |
| CCC1(C)OCCO1 | 116 °C |  |  |
| CCC(C)C |  | -160 °C | log10 vapour pressure (mmHg): 2.84 |
| NC(=O)c1c(Cl)c(Cl)c(Cl)c(Cl)c1C(=O)O |  |  | log10 BCF (fish): 0.49 |
| Nc1cc2c(cc1Cl)C(=O)c1ccccc1C2=O |  | 282 °C |  |
